Consider ten molecules from ChEMBL document CHEMBL5465560, “Selectivity Literature for EUbOPEN Chemogenomic Library” (2024).

Experiment [1] deals with BMP-2-inducible protein kinase (Homo sapiens) (UniProt Q9NSY1). Conditions: at 10 µM.
The test system of experiment [2] is Tyrosine-protein kinase ABL1 (Homo sapiens), P00519 [F317I]. Put plainly: Selectivity interaction (KinomeScan (DiscoverX)) EUB0001079a ABL1. The note with it: at 1 µM.
In experiment [3] the target is Tyrosine-protein kinase receptor Tie-1 (Homo sapiens) (UniProt P35590). Put plainly: Selectivity interaction (KinomeScan (DiscoverX)) EUB0001079a TIE1. Conditions: at 1 µM.
Chain of Tyrosine-protein kinase receptor Tie-1 (Homo sapiens) (P35590 whole entry): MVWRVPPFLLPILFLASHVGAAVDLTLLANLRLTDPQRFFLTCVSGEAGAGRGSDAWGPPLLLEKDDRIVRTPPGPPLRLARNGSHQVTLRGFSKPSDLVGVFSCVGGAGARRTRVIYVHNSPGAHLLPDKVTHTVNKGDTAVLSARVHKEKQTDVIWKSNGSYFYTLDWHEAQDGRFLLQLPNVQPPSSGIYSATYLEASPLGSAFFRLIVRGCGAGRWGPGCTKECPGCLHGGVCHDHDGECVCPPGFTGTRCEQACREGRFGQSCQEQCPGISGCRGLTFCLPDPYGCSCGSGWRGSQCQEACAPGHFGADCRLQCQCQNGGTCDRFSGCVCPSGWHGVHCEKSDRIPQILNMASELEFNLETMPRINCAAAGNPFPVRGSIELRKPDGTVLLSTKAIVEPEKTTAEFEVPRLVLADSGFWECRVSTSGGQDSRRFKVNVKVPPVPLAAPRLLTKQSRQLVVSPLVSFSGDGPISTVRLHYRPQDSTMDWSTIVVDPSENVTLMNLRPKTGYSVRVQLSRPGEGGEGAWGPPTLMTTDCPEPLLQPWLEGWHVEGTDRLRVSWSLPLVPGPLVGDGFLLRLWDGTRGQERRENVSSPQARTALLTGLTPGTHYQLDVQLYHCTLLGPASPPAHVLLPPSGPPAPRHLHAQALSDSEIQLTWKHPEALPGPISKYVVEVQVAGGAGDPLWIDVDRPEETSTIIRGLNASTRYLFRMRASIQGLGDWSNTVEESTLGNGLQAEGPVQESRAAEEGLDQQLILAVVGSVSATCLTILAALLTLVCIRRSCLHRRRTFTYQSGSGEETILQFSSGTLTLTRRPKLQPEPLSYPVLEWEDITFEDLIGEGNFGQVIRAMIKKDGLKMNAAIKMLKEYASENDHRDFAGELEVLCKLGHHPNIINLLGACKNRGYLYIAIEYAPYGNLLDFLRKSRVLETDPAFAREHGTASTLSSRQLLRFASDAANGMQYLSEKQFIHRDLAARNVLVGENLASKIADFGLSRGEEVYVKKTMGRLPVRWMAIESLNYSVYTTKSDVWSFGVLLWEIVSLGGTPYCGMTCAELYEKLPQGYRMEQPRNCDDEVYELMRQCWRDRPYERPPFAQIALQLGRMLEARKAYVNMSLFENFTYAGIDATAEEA
In experiment [4] the target is Serine/threonine-protein kinase pim-1 (Homo sapiens, UniProt P11309). Put plainly: Selectivity interaction (KinomeScan (DiscoverX)) EUB0000045b PIM1.
Chain of Serine/threonine-protein kinase pim-1 (P11309 whole entry, looked up): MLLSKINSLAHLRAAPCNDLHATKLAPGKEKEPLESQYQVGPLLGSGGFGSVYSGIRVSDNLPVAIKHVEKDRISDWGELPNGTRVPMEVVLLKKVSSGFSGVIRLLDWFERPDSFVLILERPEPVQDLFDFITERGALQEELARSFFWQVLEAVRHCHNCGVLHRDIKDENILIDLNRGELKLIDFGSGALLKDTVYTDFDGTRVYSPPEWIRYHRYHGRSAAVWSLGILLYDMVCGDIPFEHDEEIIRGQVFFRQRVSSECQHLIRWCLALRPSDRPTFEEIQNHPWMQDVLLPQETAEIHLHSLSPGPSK
The target in experiment [5] is T1, Rhodopsin kinase GRK1 (Homo sapiens) (UniProt Q15835).
T1 sequence (whole entry): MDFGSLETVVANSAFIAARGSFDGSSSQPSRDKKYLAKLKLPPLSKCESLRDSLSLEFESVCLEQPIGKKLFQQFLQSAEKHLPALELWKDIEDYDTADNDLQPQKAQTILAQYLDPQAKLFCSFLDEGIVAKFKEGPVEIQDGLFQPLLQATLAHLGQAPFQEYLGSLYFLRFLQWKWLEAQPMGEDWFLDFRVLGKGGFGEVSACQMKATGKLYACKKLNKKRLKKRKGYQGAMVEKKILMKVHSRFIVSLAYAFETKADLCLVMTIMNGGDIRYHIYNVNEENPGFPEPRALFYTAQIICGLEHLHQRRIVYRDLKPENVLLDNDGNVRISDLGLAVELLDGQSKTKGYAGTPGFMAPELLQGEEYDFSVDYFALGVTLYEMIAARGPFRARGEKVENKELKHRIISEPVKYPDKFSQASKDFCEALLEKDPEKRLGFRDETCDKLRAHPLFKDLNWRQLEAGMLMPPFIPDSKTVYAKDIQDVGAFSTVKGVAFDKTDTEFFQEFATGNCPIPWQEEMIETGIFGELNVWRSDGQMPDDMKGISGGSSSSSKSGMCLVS
Put plainly: Selectivity interaction (KinomeScan (DiscoverX)) EUB0000666a GRK1. The note with it: at 10 µM.

Experiment [6] deals with Serine/threonine-protein kinase pim-2 (Homo sapiens, UniProt Q9P1W9). Put plainly: Selectivity interaction (Kinase panel (Z-LYTE Assay)) EUB0001632a PIM2. Conditions: at 10 µM.
The target in experiment [7] is Leukocyte tyrosine kinase receptor (Homo sapiens, UniProt P29376). Put plainly: Selectivity interaction (SelectScreen profiling (Invitrogen)) EUB0000607a LTK. Conditions: at 2 µM.
Chain of Leukocyte tyrosine kinase receptor (P29376 whole entry): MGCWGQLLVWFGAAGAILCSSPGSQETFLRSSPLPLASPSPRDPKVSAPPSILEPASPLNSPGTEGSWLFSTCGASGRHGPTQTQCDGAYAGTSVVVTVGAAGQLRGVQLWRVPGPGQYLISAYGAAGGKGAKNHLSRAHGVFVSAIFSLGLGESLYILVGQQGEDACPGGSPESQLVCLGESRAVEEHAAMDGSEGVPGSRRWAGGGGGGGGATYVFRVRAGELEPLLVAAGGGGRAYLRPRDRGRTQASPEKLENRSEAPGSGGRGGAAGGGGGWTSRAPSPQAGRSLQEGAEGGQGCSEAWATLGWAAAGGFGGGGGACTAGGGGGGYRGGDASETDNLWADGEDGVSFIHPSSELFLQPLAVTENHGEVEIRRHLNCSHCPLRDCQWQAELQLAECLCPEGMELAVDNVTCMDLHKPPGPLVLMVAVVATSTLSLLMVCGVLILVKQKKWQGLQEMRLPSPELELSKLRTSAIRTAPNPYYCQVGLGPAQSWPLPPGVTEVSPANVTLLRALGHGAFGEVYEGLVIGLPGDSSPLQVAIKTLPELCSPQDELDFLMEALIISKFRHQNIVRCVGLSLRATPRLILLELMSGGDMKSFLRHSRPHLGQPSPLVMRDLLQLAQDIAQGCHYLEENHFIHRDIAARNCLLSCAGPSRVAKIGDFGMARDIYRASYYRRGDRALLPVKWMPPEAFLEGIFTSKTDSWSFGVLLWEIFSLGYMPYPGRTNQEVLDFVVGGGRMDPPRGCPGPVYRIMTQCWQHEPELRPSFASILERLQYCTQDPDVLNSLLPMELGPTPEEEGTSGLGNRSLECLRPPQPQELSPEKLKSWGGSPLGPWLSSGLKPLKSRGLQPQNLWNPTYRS
A further experiment concerns the target Activated CDC42 kinase 1 (Homo sapiens, UniProt Q07912). Put plainly: Selectivity interaction (KinomeScan (DiscoverX)) EUB0000607a TNK2. The note with it: at 10 µM.
For experiment [8], the target named is Mitogen-activated protein kinase 8 (Homo sapiens, UniProt P45983). As to the kind of experiment: Selectivity interaction (SelectScreen profiling (Invitrogen)) EUB0000607a MAPK8. The note with it: at 2 µM.
Chain of Mitogen-activated protein kinase 8 (P45983 whole entry): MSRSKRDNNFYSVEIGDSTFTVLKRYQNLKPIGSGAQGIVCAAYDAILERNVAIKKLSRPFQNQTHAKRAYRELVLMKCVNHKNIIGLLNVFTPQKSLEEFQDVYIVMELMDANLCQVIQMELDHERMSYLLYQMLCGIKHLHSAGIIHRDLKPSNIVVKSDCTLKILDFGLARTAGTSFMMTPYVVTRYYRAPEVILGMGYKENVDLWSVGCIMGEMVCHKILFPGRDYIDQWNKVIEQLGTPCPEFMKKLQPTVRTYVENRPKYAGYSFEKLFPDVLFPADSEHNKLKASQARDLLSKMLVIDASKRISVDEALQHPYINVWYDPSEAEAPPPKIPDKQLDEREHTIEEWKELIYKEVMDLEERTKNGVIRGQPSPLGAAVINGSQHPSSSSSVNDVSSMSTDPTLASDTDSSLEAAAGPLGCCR
Experiment [9] concerns the target T2, Cytoplasmic tyrosine-protein kinase BMX (Homo sapiens) (UniProt P51813).
T2 sequence (whole entry): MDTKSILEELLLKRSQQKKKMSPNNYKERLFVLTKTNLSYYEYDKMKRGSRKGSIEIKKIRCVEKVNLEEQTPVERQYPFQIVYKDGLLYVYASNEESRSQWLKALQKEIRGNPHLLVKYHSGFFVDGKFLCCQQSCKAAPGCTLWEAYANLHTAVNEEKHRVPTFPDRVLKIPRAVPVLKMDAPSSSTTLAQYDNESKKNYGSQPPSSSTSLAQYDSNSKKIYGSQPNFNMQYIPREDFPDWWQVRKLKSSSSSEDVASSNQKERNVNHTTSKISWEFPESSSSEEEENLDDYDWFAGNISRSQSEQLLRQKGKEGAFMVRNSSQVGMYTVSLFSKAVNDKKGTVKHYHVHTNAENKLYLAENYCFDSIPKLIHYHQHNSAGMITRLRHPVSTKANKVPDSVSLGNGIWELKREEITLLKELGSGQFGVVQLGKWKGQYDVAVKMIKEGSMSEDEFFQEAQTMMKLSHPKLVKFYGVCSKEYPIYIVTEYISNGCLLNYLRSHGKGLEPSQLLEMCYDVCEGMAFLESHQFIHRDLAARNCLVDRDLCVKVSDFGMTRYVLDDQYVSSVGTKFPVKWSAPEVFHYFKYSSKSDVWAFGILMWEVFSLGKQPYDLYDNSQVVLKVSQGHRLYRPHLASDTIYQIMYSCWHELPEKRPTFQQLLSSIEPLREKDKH
Put plainly: Selectivity interaction (Kinase panel (Invitrogen)) EUB0000639a BMX. The note with it: at 200 nM.

The target in experiment [10] is Serine/threonine-protein kinase PAK 4 (Homo sapiens, UniProt O96013).
Experiment [11] addresses T3, SNF-related serine/threonine-protein kinase (Homo sapiens) (UniProt Q9NRH2).
T3 sequence (whole entry): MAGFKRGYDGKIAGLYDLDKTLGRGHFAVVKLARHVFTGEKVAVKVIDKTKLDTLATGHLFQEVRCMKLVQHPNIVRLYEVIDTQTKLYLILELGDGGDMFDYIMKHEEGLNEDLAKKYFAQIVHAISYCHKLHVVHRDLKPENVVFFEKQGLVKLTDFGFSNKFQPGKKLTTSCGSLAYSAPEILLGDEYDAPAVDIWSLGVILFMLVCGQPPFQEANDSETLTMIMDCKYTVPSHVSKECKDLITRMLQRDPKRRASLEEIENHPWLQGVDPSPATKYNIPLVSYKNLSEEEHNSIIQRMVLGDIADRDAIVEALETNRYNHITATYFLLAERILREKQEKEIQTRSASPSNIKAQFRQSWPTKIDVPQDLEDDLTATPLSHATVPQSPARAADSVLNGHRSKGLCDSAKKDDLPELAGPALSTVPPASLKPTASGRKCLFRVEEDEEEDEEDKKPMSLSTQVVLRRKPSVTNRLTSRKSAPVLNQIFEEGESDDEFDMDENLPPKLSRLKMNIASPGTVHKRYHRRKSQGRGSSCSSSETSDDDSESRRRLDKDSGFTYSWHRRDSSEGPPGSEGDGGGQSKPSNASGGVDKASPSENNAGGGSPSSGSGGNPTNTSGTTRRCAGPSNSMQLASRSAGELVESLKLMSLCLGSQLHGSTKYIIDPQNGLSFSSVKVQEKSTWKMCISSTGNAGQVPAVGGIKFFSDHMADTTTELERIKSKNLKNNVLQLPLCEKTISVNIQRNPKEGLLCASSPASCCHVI
Put plainly: Selectivity interaction (KinomeScan (DiscoverX)) EUB0000595a SNRK. The note with it: at 10 µM.

Experiment [12] addresses Serine/threonine-protein kinase 38 (Homo sapiens) (UniProt Q15208). As to the kind of experiment: Selectivity interaction (ActivX KiNativ screen (ex vivo kinase selectivity in human PBMCs)) EUB0001619a STK38. The experiment is classed as cell-based. The note with it: PBMC, at 1 µM.

Molecules are shown by their SMILES.

Chain of BMP-2-inducible protein kinase (Homo sapiens) (Q9NSY1 whole entry, looked up): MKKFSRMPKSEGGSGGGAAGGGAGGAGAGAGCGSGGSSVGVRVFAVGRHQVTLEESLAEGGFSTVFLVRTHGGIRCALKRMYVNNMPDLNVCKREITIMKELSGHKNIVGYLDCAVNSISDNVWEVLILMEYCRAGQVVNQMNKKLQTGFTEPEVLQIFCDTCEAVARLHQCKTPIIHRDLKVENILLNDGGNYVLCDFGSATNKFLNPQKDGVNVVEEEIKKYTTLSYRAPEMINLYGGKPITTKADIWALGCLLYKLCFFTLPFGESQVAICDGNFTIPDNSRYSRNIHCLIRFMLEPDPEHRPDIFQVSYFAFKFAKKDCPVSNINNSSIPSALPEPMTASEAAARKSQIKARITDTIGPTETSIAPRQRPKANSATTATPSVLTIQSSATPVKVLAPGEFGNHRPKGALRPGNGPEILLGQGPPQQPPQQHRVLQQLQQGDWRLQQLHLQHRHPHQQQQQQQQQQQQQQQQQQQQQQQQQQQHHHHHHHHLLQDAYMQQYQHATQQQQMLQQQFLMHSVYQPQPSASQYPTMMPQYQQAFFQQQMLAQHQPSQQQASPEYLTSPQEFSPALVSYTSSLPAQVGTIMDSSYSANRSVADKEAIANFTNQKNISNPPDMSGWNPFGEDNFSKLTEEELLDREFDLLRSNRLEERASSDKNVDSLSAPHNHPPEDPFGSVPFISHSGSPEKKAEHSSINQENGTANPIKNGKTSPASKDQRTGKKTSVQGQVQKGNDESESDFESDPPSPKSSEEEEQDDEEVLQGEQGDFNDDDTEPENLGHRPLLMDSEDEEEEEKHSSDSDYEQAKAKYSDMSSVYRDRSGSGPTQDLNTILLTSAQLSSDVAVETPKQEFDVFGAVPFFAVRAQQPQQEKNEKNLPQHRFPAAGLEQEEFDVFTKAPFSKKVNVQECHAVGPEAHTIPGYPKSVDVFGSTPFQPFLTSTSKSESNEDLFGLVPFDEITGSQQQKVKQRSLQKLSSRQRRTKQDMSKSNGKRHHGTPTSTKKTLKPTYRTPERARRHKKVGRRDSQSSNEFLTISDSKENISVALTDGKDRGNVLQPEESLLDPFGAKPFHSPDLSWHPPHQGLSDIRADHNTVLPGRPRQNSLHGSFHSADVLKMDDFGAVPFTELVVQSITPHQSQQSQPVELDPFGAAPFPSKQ
Chain of Tyrosine-protein kinase ABL1 (Homo sapiens), P00519 [F317I] (P00519 whole entry F317I): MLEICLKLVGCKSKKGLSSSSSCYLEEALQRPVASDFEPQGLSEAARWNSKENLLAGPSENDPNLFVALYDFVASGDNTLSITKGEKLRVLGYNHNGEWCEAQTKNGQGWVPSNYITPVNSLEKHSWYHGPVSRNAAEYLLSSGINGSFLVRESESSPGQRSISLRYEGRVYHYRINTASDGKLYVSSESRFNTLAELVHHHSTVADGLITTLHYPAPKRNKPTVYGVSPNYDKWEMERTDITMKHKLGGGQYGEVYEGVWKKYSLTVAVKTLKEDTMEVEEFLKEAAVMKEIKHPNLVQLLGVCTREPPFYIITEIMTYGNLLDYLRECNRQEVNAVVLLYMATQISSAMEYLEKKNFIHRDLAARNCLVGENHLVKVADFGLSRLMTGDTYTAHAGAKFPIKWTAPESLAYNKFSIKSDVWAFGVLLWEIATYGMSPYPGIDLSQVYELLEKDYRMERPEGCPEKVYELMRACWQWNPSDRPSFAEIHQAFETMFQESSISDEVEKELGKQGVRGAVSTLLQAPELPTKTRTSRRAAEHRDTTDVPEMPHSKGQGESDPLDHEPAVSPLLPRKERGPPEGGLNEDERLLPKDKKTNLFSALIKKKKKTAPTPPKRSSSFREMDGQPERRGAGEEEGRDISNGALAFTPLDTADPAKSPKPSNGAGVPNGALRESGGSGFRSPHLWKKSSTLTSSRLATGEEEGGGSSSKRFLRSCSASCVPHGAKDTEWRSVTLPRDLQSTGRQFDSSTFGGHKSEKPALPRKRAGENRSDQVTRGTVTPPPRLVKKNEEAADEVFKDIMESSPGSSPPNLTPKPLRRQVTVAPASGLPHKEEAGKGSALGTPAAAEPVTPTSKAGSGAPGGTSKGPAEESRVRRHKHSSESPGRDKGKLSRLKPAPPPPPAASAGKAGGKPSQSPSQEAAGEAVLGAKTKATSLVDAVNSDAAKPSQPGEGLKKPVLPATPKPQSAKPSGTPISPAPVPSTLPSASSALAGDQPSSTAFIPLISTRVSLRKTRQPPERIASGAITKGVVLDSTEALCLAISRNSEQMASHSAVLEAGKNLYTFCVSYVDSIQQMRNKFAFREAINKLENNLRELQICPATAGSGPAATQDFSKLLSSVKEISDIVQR

In [1], `Cc1cc([C@@H](C)Nc2ccccc2C(=O)O)c2nc(N3CCOCC3)cc(=O)n2c1` [AZD-6482] gave a % of control of 94%. On to `Nc1cnc(N2CCc3cc(S(=O)(=O)Nc4c(F)cc(Cl)cc4F)cc(N4CCCC4=O)c32)nc1` [TP-020n], for which the % of control in experiment [2] and in [3] was 100% in each case. As for `C=CC(=O)Nc1cc(-n2c(=O)ccc3cnc4ccc(-c5ccc(NS(C)(=O)=O)cc5)cc4c32)ccc1C`, the % of control in [4] (at 1 µM) is 100%; in experiment [4] (at 10 µM), 86%.

`O=C(NOC[C@H](O)CO)c1ccc(F)c(F)c1Nc1ccc(I)cc1F` yielded a % of control in experiment [5] of 100%.

In experiment [6], `Cn1cc(-n2cnc3c(NCc4nc5cc(Cl)c(Cl)cc5[nH]4)nc(N4CCOCC4)nc32)cn1` had a % of control of 0.824%. With `CNC(=O)Nc1ccc(-c2nc(N3CC4CCC(C3)O4)c3cnn(C4CCC5(CC4)OCCO5)c3n2)cc1`, the % of inhibition amounted to 8% in experiment [7] and 12% in experiment [8]. Also, the % of control on Activated CDC42 kinase 1 came out at 84%.

On to `CC[C@@H]1[C@H](F)C(=O)N[C@@H]1COc1nccc2cc(C(N)=O)c(OC)cc12` [ZIMLOVISERTIB], for which the % of inhibition in experiment [9] is -1.42%. `CCc1cccc(CC)c1NC(=O)c1nn(C)c2c1CCc1cnc(Nc3ccc(C(=O)NC4CCN(C)CC4)cc3OC(F)(F)F)nc1-2` gave an IC50 in experiment [10] of more than 10 µM.

Consider `COCC(=O)NC/C=C/c1ccc2ncnc(Nc3ccc(Oc4ccc(C)nc4)c(C)c3)c2c1` [CP-724714], for which the % of control in [11] amounted to 71%. Turning to `N#Cc1cccc(-c2c[nH]c3ncnc(N4CCOCC4)c23)c1`, in [12], the % of inhibition is 4%.

A word on the IC50: it is the midpoint of a concentration-inhibition curve. High values mean weaker potency in that assay, low ones greater potency in that assay.
